Test [1] deals with T1, Aro3 (Saccharomyces cerevisiae, UniProt P14843, D154N).
T1 construct: full-length ORF in pET21, C-terminal His6 tag, expressed in E. coli Rosetta 2 (DE3); Ni-NTA and gel filtration; dimer in crystal
Kind of test: DAHP formation, periodate-thiobarbituric acid assay at […] nm. It counts as biochemical. Particulars: read-out: % remaining activity at 10 mM.

Test [2] deals with T1, Aro3. Kind of test: isothermal titration calorimetry. It is filed as binding. For orientation: Isothermal titration calorimetry measures the heat released or taken up as one component is titrated into another.
In test [3] the target is T2, Aro3 (Saccharomyces cerevisiae, UniProt P14843, K222L).
T2 construct: full-length ORF in pET21, C-terminal His6 tag, expressed in E. coli Rosetta 2 (DE3); Ni-NTA and gel filtration; dimer in crystal
Kind of test: DAHP formation, periodate-thiobarbituric acid assay at […] nm. It counts as biochemical. Conditions: read-out: % inhibition at 0.1 mM.

In test [4] the target is T3, Aro3 (Saccharomyces cerevisiae, UniProt P14843).
T3 construct: full-length ORF in pET21, C-terminal His6 tag, expressed in E. coli Rosetta 2 (DE3); Ni-NTA and gel filtration; dimer in crystal
Kind of test: isothermal titration calorimetry. It counts as binding.

The target of test [5] is T3, Aro3. Kind of test: DAHP formation, periodate-thiobarbituric acid assay at […] nm. It counts as biochemical. Particulars: read-out: % inhibition at 0.1 mM.

T3 sequence (P14843 whole entry): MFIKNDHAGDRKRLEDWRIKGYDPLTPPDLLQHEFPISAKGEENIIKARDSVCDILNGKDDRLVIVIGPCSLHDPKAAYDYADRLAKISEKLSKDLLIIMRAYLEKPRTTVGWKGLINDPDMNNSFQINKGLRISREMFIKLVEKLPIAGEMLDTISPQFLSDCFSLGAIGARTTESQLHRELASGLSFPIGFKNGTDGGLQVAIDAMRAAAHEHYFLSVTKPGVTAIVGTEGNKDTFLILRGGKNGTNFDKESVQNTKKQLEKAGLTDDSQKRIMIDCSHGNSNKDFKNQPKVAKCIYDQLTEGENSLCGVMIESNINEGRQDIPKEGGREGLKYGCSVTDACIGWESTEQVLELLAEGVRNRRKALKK
T1 sequence (P14843 whole entry D154N): as the sequence (P14843 whole entry) above, with D154N counted along it
T2 sequence (P14843 whole entry K222L): as the sequence (P14843 whole entry) above, with K222L counted along it

As usually defined, the remaining activity is the signal under treatment as a percentage of the control signal. As a reminder, the Kd is the free concentration of one partner at which half of the binding sites on the other are occupied at equilibrium, for simple one-to-one binding. A higher Kd goes with lower affinity. As usually defined, the inhibition is the drop in the measured response relative to a control, in per cent. With `N[C@@H](Cc1ccccc1)C(=O)O` [L-Phe], the remaining activity at 10000 µM on Aro3 [1] was 71.2%. Moreover, the Kd was 336 ± 31.2 µM at Aro3 [2] and 31.4 µM on Aro3 [4]. The inhibition at 100 µM on Aro3 [3] and on Aro3 [5] was approximately 50% each time.

The values above are taken from PMC10349828, “Mechanistic investigation of a D to N mutation in DAHP synthase that dictates carbon flux into the shikimate pathway in yeast” (Communications Chemistry, 2023).
